Assay results taken from article PMC4393326, “The natural product brartemicin is a high affinity ligand for the carbohydrate-recognition domain of the macrophage receptor mincle” (Medchemcomm, 2015).

Experiments:
CRD from bovine mincle = target: T1, CRD from bovine mincle (Bos taurus, UniProt E1BHM0); test: Competition binding assay: inhibition of radioiodinated Man31-bovine serum albumin binding to immobilized biotin-tagged CRD; settings: for Ki: inhibition of mannose-conjugated serum albumin binding to bovine mincle CRD, average ± s.d. for three independent experiments; for Reduction in binding affinity compared to brartemicin / Rel. affinity (affinity relative to α,α-trehalose): bovine mincle CRD; for Rel. affinity (affinity relative to α,α-trehalose): α,α-trehalose = 1
T1 construct: A biotin-tagged version of the CRD from bovine mincle was prepared in a bacterial expression system; made in house; host or cells: bacterial expression system
T1 sequence (E1BHM0 78-211 limits assumed): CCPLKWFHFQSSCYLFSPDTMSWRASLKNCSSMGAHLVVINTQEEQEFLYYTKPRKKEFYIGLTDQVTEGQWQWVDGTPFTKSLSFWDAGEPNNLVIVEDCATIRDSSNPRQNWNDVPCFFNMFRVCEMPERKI
Description: The collection of compounds was tested in competition binding experiments with immobilized bovine mincle CRD[8] (Fig. 3a).
Fig. 3 a) Data for inhibition of mannose-conjugated serum albumin binding to the CRD from bovine mincle by brartemicin and analogs. K I-values (average ± s.d. for three independent experiments) and affinities relative to α,α-trehalose. b) Top view and c) side view of highest scoring docking pose of brartemicin with bovine mincle. The Ca^2+ is coloured magenta. TEXT PRINTED IN THE PICTURE: (a) brartemicin: Ki (μM): 5.5 ± 0.9; Rel. affinity: 290 | (a) 2: Ki (μM): 5.4 ± 0.3; Rel. affinity: 300 | (a) 3: Ki (μM): 11.3 ± 0.9; Rel. affinity: 140 | (a) 4: Ki (μM): 164 ± 13; Rel. affinity: 9.8 | (a) epi-brartemicin: Ki (μM): 440 ± 70; Rel. affinity: 3.6 | (a) α,α-trehalose: Ki (μM): 1620 ± 70; Rel. affinity: 1
(§1) A biotin-tagged version of the CRD from bovine mincle was prepared in a bacterial expression system as previously described.[8] An equivalent fragment of human mincle was generated using an analogous system.[9] Binding competition assays, based on inhibition of binding of radioiodinated Man31-bovine serum albumin to the biotin-tagged CRDs immobilized on streptavidin-coated plates, were performed as previously described.[8] Results are reported as average ± standard deviation for at least 3 independent experiments, each performed in duplicate.

CRD of human mincle = target: T2, CRD of human mincle (Homo sapiens, UniProt Q9ULY5); test: Competition binding assay with immobilized CRD of human mincle; settings: Fig. S1
T2 construct: made in house; host or cells: bacterial expression system (analogous to the bovine one)
T2 sequence (Q9ULY5 87-206 limits assumed): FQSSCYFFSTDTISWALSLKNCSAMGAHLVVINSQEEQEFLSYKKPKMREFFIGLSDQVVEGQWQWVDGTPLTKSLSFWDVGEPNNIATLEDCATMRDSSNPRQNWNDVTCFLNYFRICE
Description: as §1

[1] = Solubility in aqueous media; format: physicochemical
cancer cells = settings: cited from earlier work

SMILES | Ki (CRD from bovine mincle) | Binding to CRD of human mincle (CRD of human mincle) | Solubility in aqueous media [1] | Reduction in binding affinity compared to brartemicin (CRD from bovine mincle) | Rel. affinity (affinity relative to α,α-trehalose) (CRD from bovine mincle) | Block of matrigel-invasion of cancer cells (cancer cells) | Anti-invasive activity on cancer cells (cancer cells)
COc1cccc(C(=O)OC[C@H]2O[C@H](O[C@H]3O[C@H](COC(=O)c4cccc(OC)c4OC)[C@@H](O)[C@H](O)[C@H]3O)[C@H](O)[C@@H](O)[C@@H]2O)c1OC [compound 2] | 5.4 ± 0.3 µM | – | – | equipotent | 300 fold | – | in the same range as brartemicin
O=C(OC[C@H]1O[C@H](O[C@H]2O[C@H](COC(=O)c3ccccc3)[C@@H](O)[C@H](O)[C@H]2O)[C@H](O)[C@@H](O)[C@@H]1O)c1ccccc1 [compound 3] | 11.3 ± 0.9 µM | – | – | two-fold | 140 fold | – | in the same range as brartemicin
Cc1cc(O)cc(O)c1C(=O)OC[C@H]1O[C@H](O[C@H]2O[C@H](CO)[C@@H](O)[C@H](O)[C@H]2O)[C@H](O)[C@@H](O)[C@@H]1O [compound 4] | 164 ± 13 µM | – | – | roughly 30 fold | 9.8 fold | – | –
OC[C@H]1O[C@H](O[C@H]2O[C@H](CO)[C@@H](O)[C@H](O)[C@H]2O)[C@H](O)[C@@H](O)[C@@H]1O [α,α-trehalose, reference compound] | 1620 ± 70 µM | – | – | – | 1 fold | – | –

Now from value to compound, other results behind:

Ki (CRD from bovine mincle) | Binding to CRD of human mincle (CRD of human mincle) | Solubility in aqueous media [1] | Reduction in binding affinity compared to brartemicin (CRD from bovine mincle) | Rel. affinity (affinity relative to α,α-trehalose) (CRD from bovine mincle) | SMILES | Block of matrigel-invasion of cancer cells (cancer cells) | Anti-invasive activity on cancer cells (cancer cells)
5.5 ± 0.9 µM | binds with high affinity | soluble at millimolar concentrations | – | – | Cc1cc(O)cc(O)c1C(=O)OC[C@H]1O[C@H](O[C@H]2O[C@H](COC(=O)c3c(C)cc(O)cc3O)[C@@H](O)[C@H](O)[C@H]2O)[C@H](O)[C@@H](O)[C@@H]1O [brartemicin, 6,6′-Bis-(2,4-dihydroxy-6-methylbenzoate)-α,α-trehalose] | block matrigel-invasion of cancer cells | –
440 ± 70 µM | – | – | ~100 fold | 3.6 fold | Cc1cc(O)cc(O)c1C(=O)OC[C@H]1O[C@@H](O[C@H]2O[C@H](COC(=O)c3c(C)cc(O)cc3O)[C@@H](O)[C@H](O)[C@H]2O)[C@H](O)[C@@H](O)[C@@H]1O [epi-brartemicin, 6,6′-Bis-(2,4-dihydroxy-6-methylbenzoate)-α,β-trehalose] | – | –
